Experimental data taken from patent publication US20240382629A1, “HETEROBIVALENT AND HOMOBIVALENT AGENTS TARGETING FIBROBLAST ACTIVATION PROTEIN ALPHA AND/OR PROSTATE-SPECIFIC MEMBRANE ANTIGEN” (The Johns Hopkins University, priority 2021, published 2024).
Like-named read-outs stand apart in the source and are kept apart here.

Experiments:
Assay type in all cases: biochemical
PREP = PREP (Homo sapiens (Human), UniProt P48147); experiment: PREP inhibition assay (recombinant enzyme, Z-Gly-Pro-AMC substrate)
Protocol: (§1) PSMA binding affinities of the compounds were determined using a competitive inhibition assay as previously reported. […] FAP, prolyl endopeptidase (PREP), and […] (DPPIV) inhibition assays: Recombinant enzymes (FAP, PREP, DPPIV) were purchased from R&D Systems (Minneapolis, MN). […] Z-Gly-Pro-AMC was used as a substrate for FAP and PREP. H-Gly-Pro-AMC was used as a substrate for DPPIV. The recombinant enzyme (0.4 μg/mL) was incubated with varying amounts of the test articles in the presence of the designated substrate (80 μM) for 10 min at room temperature. Fluorescence intensity was measured with 380 nm excitation and 460 nm emission using the Cytation 5 Cell Imaging Multi-Mode Reader (BioTek, Winooski, VT). IC50 and Ki values were obtained using a sigmoidal dose-response function.

DPPIV = DPPIV (Homo sapiens (Human), UniProt P27487); experiment: DPPIV inhibition assay (recombinant enzyme, H-Gly-Pro-AMC substrate)
Protocol: as §1

FAP = FAP (Homo sapiens (Human), UniProt Q12884); experiment: FAP inhibition assay (recombinant enzyme, Z-Gly-Pro-AMC substrate); conditions: for Ki: read-out: FAP Ki
Protocol: as §1

PSMA = PSMA (Homo sapiens (Human), UniProt Q04609); experiment: PSMA competitive inhibition assay (NAAG substrate, LNCaP cell lysate); conditions: for Ki: read-out: PSMA Ki
Protocol: as §1

Sequence of FAP (Q12884 whole entry): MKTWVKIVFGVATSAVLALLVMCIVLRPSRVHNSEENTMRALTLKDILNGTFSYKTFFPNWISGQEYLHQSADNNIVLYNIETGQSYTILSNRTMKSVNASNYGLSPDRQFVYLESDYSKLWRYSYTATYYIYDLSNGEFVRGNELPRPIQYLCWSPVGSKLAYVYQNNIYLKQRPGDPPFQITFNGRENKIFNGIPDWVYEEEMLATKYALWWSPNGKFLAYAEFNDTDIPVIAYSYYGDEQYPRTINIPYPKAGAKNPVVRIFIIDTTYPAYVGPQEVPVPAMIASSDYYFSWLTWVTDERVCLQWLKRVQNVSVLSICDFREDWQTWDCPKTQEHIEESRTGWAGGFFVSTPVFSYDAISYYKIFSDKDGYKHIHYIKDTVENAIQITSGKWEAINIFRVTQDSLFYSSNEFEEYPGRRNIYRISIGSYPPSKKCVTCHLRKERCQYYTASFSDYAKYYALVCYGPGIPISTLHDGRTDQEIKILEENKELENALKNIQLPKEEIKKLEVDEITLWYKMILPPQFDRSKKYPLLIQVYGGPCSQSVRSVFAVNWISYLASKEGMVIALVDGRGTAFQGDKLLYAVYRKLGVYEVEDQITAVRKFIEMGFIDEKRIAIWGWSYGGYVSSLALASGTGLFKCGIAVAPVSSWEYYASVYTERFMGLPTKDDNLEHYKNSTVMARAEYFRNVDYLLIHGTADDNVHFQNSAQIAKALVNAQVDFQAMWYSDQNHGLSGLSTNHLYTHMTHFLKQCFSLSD
Sequence of PSMA (Q04609 whole entry): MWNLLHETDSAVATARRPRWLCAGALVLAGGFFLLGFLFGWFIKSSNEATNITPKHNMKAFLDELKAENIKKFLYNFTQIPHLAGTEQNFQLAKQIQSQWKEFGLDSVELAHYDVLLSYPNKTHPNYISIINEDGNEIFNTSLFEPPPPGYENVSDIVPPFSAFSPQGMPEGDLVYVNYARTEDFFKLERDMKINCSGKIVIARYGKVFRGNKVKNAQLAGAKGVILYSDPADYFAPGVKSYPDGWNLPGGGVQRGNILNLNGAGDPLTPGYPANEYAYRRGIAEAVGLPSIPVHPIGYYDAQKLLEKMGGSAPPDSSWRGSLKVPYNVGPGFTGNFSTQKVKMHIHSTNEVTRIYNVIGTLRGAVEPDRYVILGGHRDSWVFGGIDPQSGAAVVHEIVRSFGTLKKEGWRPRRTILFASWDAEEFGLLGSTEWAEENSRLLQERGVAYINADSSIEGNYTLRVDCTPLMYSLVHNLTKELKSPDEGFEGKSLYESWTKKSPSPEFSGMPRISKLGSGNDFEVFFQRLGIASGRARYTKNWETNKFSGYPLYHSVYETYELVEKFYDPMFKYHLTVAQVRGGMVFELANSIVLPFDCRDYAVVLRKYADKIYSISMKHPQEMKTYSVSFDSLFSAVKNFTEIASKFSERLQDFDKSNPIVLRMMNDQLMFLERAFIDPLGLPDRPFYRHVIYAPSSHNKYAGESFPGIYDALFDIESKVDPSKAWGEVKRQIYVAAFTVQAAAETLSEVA
Sequence of DPPIV (P27487 whole entry): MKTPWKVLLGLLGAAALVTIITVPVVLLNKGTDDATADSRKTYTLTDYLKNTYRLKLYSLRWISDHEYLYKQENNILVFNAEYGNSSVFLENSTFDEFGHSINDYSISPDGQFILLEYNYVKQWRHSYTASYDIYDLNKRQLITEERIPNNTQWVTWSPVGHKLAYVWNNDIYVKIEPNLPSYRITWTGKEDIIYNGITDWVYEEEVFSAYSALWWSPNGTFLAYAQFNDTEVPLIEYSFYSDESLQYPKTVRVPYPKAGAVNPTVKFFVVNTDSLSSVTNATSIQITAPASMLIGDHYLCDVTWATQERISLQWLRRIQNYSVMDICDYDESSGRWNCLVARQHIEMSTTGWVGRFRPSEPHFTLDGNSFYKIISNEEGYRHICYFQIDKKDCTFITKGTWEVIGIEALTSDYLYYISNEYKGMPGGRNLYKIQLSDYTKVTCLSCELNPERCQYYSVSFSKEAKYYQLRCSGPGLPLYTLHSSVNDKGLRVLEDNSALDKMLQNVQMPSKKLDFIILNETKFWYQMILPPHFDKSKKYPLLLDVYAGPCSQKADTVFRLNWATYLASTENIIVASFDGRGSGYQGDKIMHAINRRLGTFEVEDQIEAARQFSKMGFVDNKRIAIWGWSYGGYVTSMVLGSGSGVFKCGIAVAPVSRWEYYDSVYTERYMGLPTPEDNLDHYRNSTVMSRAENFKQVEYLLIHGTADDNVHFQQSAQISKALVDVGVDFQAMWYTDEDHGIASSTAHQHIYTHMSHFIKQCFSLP
Sequence of PREP (P48147 whole entry): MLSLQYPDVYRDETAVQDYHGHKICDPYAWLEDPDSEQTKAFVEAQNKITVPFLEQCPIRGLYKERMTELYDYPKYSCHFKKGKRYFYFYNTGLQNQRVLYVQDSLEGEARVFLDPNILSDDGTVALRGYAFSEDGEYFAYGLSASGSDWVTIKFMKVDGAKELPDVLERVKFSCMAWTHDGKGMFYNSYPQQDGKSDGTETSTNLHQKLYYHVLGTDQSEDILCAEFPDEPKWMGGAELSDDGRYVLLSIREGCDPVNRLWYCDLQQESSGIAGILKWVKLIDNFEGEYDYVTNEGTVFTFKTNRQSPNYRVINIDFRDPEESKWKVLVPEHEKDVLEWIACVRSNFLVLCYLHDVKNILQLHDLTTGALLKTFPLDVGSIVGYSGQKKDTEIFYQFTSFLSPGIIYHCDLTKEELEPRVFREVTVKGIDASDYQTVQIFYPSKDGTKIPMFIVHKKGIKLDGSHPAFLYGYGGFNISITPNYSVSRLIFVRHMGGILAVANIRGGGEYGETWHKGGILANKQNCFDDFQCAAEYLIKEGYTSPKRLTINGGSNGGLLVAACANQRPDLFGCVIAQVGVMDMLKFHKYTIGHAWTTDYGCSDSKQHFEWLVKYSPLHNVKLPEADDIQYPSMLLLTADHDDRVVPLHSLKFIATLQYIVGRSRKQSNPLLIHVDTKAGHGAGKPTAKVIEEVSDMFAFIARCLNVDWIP

Compound	IC50 (PREP; Table 3) [µM]	IC50 (DPPIV; Table 3, read-out: DPPIV IC50) [µM]	IC50 (FAP; Table 3) [µM]	Ki (FAP; Table 3) [nM]	also measured
N#C[C@@H]1CC(F)(F)CN1C(=O)CNC(=O)c1ccnc2ccc(F)cc12 [JHU1220466]	0.047	3.5	0.00031	0.062	–
N#C[C@@H]1CCCN1C(=O)CNC(=O)c1ccnc2ccc(OCCCN(Cc3ccc(F)nc3)C(=O)CN3CCN(CC(=O)O)CCN(CC(=O)O)CCN(CC(=O)O)CC3)cc12 [JHU1221709]	21.9	12.6	0.00209	0.42	–
N#C[C@@H]1CCCN1C(=O)CNC(=O)c1ccnc2cc(F)ccc12 [JHU1220501]	0.522	> 20	0.00216	0.433	–
N#C[C@@H]1CCCN1C(=O)CNC(=O)c1ccnc2ccc(OCCCNC(=O)CCc3cn(CCCC[C@H](NC(=O)CN4CCN(CC(=O)O)CCN(CC(=O)O)CCN(CC(=O)O)CC4)C(=O)NCCCCCC(=O)N(CCCC[C@H](NC(=O)N[C@@H](CCC(=O)O)C(=O)O)C(=O)O)Cc4ccc(Br)cc4)nn3)cc12 [SB-FAP-06]	–	–	–	–	IC50 (PREP; Table 4): 0.37 µM; IC50 (DPPIV; Table 4, read-out: DPPIV IC50): 14.1 µM; IC50 (FAP; Table 4): 0.00184 µM; Ki (FAP; Table 4): 0.37 nM; IC50 (PSMA; Table 4): 0.00471 µM; Ki (PSMA; Table 4): 0.00094 µM
N#C[C@@H]1CCCN1C(=O)CNC(=O)c1ccnc2ccc(OCCCNC(=O)CCc3cn(CCCC[C@H](NC(=O)CN4CCN(CC(=O)O)CCN(CC(=O)O)CC4)C(=O)NCCCCCC(=O)N(CCCC[C@H](NC(=O)N[C@@H](CCC(=O)O)C(=O)O)C(=O)O)Cc4ccc(Br)cc4)nn3)cc12 [SB-FAP-07]	–	–	–	–	Ki (PREP): 0.21 µM; IC50 (PREP; Table 4): 1.07 µM; Ki (DPPIV): 3.04 µM; IC50 (DPPIV; Table 4, read-out: DPPIV IC50): 11.7 µM; IC50 (FAP; Table 4): 0.00065 µM; Ki (FAP): 0.13 nM; IC50 (PSMA; Table 4): 0.0396 µM; Ki (PSMA): 0.00792 µM
N#C[C@@H]1CCCN1C(=O)CNC(=O)c1ccnc2ccc(OCCCNC(=O)CNC(=O)[C@H](CCCCNC(=O)c3ccc(F)nc3)NC(=O)CN3CCN(CC(=O)O)CCN(CC(=O)O)CCN(CC(=O)O)CC3)cc12 [JHU1221804]	1.71	8.31	0.00101	0.2	–
N#C[C@@H]1CCCN1C(=O)CNC(=O)c1ccnc2ccc(OCCCN(Cc3ccc(I)cc3)C(=O)CN3CCN(CC(=O)O)CCN(CC(=O)O)CCN(CC(=O)O)CC3)cc12 [JHU1220627]	> 2000	836	0.00141	0.28	–
N#C[C@@H]1CCCN1C(=O)CNC(=O)c1ccnc2ccc(OCCCNC(=O)[C@@H](CC(=O)O)NC(=O)[C@@H](CC(=O)O)NC(=O)c3ccc(F)nc3)cc12 [JHU1221785]	86.6	17.7	0.00131	0.26	–
N#C[C@@H]1CCCN1C(=O)CNC(=O)c1ccnc2cccc(F)c12 [JHU1219438]	0.0958	> 20	0.000912	0.182	–
N#C[C@@H]1CCCN1C(=O)CNC(=O)c1ccnc2ccc(OCCCNC(=O)CCc3cn(CCOCCOCCOCCC(=O)N[C@@H](CCCCNC(=O)CCC(C(=O)O)N4CCN(CC(=O)O)CCN(CC(=O)O)CCN(CC(=O)O)CC4)C(=O)NCCCCC(=O)N(CCCC[C@H](NC(=O)N[C@@H](CCC(=O)O)C(=O)O)C(=O)O)Cc4ccc(Br)cc4)nn3)cc12 (some centres unmarked) [SB-FAP-03]	–	–	–	–	IC50 (PREP; Table 4): 1.37 µM; IC50 (DPPIV; Table 4, read-out: DPPIV IC50): 18.4 µM; IC50 (FAP; Table 4): 0.00342 µM; Ki (FAP; Table 4): 0.68 nM; IC50 (PSMA; Table 4): 0.0145 µM; Ki (PSMA; Table 4): 0.00289 µM
CC1(C)C(/C=C/C2=C(Oc3ccc(S(=O)(=O)O)cc3)C(=C/C=C3/N(CCCCS(=O)(=O)O)c4ccc(S(=O)(=O)O)cc4C3(C)C)/CCC2)=[N+](CCCCCC(=O)N[C@@H](CCCCn2cc(CCC(=O)NCCCOc3ccc4nccc(C(=O)NCC(=O)N5CCC[C@H]5C#N)c4c3)nn2)C(=O)NCCNC(=O)CCC(C(=O)O)N2CCN(CC(=O)O)CCN(CC(=O)O)CCN(CC(=O)O)CC2)c2ccc(S(=O)(=O)[O-])cc21 (some centres unmarked) [SB-FAP-10]	–	–	–	–	IC50 (PREP; Table 4): 2.53 µM; IC50 (DPPIV; Table 4, read-out: DPPIV IC50): 11.9 µM; IC50 (FAP; Table 4): 0.00343 µM; Ki (FAP; Table 4): 0.69 nM
N#C[C@@H]1C[C@H](F)CN1C(=O)CNC(=O)c1ccnc2ccc(F)cc12 [JHU1220471]	0.0115	2.53	0.000734	0.147	–
N#C[C@@H]1CCCN1C(=O)CNC(=O)c1ccnc2ccc(OCCCNC(=O)CCc3cn(CCCC[C@H](NC(=O)c4ccc(F)nc4)C(=O)NCCNC(=O)CCC(C(=O)O)N4CCN(CC(=O)O)CCN(CC(=O)O)CCN(CC(=O)O)CC4)nn3)cc12 (stereo partly drawn) [SB-FAP-11, 2,2′,2″-(10-(1-Carboxy-4-((2-((S)-6-(4-(3-((3-((4-((2-((S)-2-cyanopyrrolidin-1-yl)-2-oxoethyl)carbamoyl)quinolin-6-yl)oxy)propyl)amino)-3-oxopropyl)-1H-1,2,3-triazol-1-yl)-2-(6-fluoronicotinamido)hexanamido)ethyl)amino)-4-oxobutyl)-1,4,7,10-tetraazacyclododecane-1,4,7-triyl)triacetic acid]	0.51	9.48	0.00035	0.07	–
N#C[C@@H]1CC(F)(F)CN1C(=O)CNC(=O)c1ccnc2ccc(OCCCN3CCN(C(=O)CN4CCN(CC(=O)O)CCN(CC(=O)O)CCN(CC(=O)O)CC4)CC3)cc12 [FAPI-04, reference compound]	–	–	–	–	Ki (DPPIV): 0.8 µM
N#C[C@@H]1CCCN1C(=O)CNC(=O)c1ccnc2c(F)cccc12 [JHU1220502]	0.0845	> 20	0.00504	1.01	–
N#C[C@@H]1CCCN1C(=O)CNC(=O)c1ccnc2ccc(F)cc12 [JHU1220450]	–	> 20	0.000119	0.0239	–
N#C[C@@H]1CCCN1C(=O)CNC(=O)c1ccnc2ccc(OCCF)cc12 [JHU1220470]	1.41	–	0.000343	0.0686	IC50 (DPPIV): > 20 µM
N#C[C@@H]1CCCN1C(=O)CNC(=O)c1ccnc2ccc(OCCCNC(=O)[C@@H](CC(=O)O)NC(=O)[C@@H](CC(=O)O)NC(=O)c3cccc(F)n3)cc12 [JHU1221708]	6.91	7.91	0.00119	0.24	–
N#C[C@@H]1CCCN1C(=O)CNC(=O)c1ccnc2ccc(OCCOCCNC(=O)[C@H](CCCCNC(=O)c3ccc(F)nc3)NC(=O)CN3CCN(CC(=O)O)CCN(CC(=O)O)CCN(CC(=O)O)CC3)cc12 [JHU1221803]	1.09	6.22	0.0014	0.28	–
N#C[C@@H]1CCCN1C(=O)CNC(=O)c1ccnc2ccc(OCCCNC(=O)CCOCCOCCOCCOCCNC(=O)[C@H](CCCCNC(=O)c3ccc(F)nc3)NC(=O)CN3CCN(CC(=O)O)CCN(CC(=O)O)CCN(CC(=O)O)CC3)cc12 [JHU1221823]	0.24	7.47	0.00059	0.12	–
N#CC1CCCN1C(=O)CNC(=O)c1ccnc2ccc(OCCCNC(=O)CCc3cn(CCCC[C@H](NC(=O)CN4CCN(CC(=O)O)CCN(CC(=O)O)CC4)C(=O)NCCCOc4ccc5nccc(C(=O)NCC(=O)N6CCC[C@H]6C#N)c5c4)nn3)cc12 (some centres unmarked) [SB-FAP-09]	0.63	2.05	0.00048	0.1	–
N#CC1CCCN1C(=O)CNC(=O)c1ccnc2ccc(OCCCNC(=O)CCc3cn(CC[C@H](NC(=O)CN4CCN(CC(=O)O)CCN(CC(=O)O)CC4)C(=O)NCCCCCC(=O)NCCCC[C@H](NC(=O)N[C@@H](CC(=O)O)C(=O)O)C(=O)O)nn3)cc12 (some centres unmarked) [SRI-07-42]	–	–	–	–	IC50 (PREP; Table 4): 11.2 µM; IC50 (DPPIV; Table 4, read-out: DPPIV IC50): 9.91 µM; IC50 (FAP; Table 4): 0.00223 µM; Ki (FAP; Table 4): 0.45 nM; IC50 (PSMA; Table 4): 4.71 µM; Ki (PSMA; Table 4): 0.94 µM
N#C[C@@H]1CCCN1C(=O)CNC(=O)c1c(F)cnc2ccccc12 [JHU1220503]	0.688	> 20	0.223	44.6	–
